Numbered stars: 1 amine (or outer) side, 2 acyl side, 3 side chain; on linkers, the order of the positions; unused ones are H or OH. Bridge positions count the residues as written; N and C are the ends. Square brackets hold non-standard residues; d marks the D form. Side chains are listed from the residue outwards. Peptide text beside a SMILES is read from it. * marks the point of attachment. ξ: configuration not given here. X11 = O=C(O)CN1CCN(CC(=O)O)CCN(CC(=O)NCCCC[C@@H](NC(=O)COCCOCCOCCOCCOCCOCCOCCOCCNC(=O)Cc2ccc(Br)cc2)C(=O)NCCOCCOCCOCCOCCOCCOCCOCCOCC(=O)*)CCN(CC(=O)O)CC1; DOTA = O=C(O)CN1CCN(CC(=O)O)CCN(CC(=O)*)CCN(CC(=O)O)CC1; Trp(5-F) = N[C@@H](Cc1c[nH]c2ccc(F)cc12)C(=O)O; Phe(2-CF3) = N[C@@H](Cc1ccccc1C(F)(F)F)C(=O)O; Trp(7-aza) = N[C@@H](Cc1c[nH]c2ncccc12)C(=O)O; Pro(trans-4-F) = O=C(O)[C@@H]1C[C@@H](F)CN1; 2Nal = N[C@@H](Cc1ccc2ccccc2c1)C(=O)O; pXylylene = c1cc(C[*:2])ccc1C[*:1]; ξW = NC(Cc1c[nH]c2ccccc12)C(=O)O; Thr(3ξ) = CC(O)[C@H](N)C(=O)O; Cba = N[C@@H](CC1CCC1)C(=O)O; Chg = N[C@H](C(=O)O)C1CCCCC1; PEG4 = NCCOCCOCCOCCOCCC(=O)O; Tle = CC(C)(C)[C@H](N)C(=O)O; Nle = CCCC[C@H](N)C(=O)O
Target: T1, human DLL3 (Homo sapiens, UniProt Q9NYJ7)
T1 sequence (Q9NYJ7 27-618): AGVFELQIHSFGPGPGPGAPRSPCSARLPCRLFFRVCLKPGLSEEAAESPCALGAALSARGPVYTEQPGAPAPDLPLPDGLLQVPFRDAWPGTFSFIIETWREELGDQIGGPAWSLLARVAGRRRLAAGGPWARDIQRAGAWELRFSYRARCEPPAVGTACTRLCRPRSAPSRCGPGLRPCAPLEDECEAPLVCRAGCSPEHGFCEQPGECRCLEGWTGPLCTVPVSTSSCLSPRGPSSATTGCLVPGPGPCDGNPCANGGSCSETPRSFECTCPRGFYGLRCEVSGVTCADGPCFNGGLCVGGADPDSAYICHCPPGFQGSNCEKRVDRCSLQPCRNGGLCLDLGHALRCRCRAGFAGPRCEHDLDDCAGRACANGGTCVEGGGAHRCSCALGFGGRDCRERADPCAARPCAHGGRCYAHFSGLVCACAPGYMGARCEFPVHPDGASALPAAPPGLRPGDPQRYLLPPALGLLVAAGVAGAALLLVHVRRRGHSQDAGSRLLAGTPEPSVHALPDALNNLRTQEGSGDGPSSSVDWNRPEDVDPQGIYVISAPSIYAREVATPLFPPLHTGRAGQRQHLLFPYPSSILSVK
Assay: Affinity determination by Surface Plasmon Resonance (SPR)
Format: binding
Details: not given
Procedure, shortened: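 Kinetic and affinity constants were derived by fitting sensorgrams to a 1:1 binding model. Graded compound concentrations flowed at 100 μL/minute in 20 mM phosphate running buffer with 2% DMSO over streptavidin-immobilized biotinylated human DLL3, reference-subtracted.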

Structure (SMILES) | Kd [nM]
CC[C@H](C)[C@H](NC(=O)[C@@H](NC(=O)[C@H](Cc1c[nH]c2ccccc12)NC(C)=O)[C@@H](C)O)C(=O)N[C@H]1CSSC[C@@H](C(=O)N[C@@H](Cc2c[nH]c3ccccc23)C(=O)N2CCC[C@H]2C(=O)N[C@H](CCCCNC(=O)COCCOCCOCCOCCOCCOCCOCCOCCNC(=O)[C@@H](CCCCNC(=O)CN2CCN(CC(=O)O)CCN(CC(=O)O)CCN(CC(=O)O)CC2)NC(=O)COCCOCCOCCOCCOCCOCCOCCOCCNC(=O)Cc2ccc(Br)cc2)C(N)=O)NC(=O)[C@H](CC(=O)O)NC(=O)[C@H](Cc2c[nH]cn2)NC(=O)[C@H](Cc2ccc3ccccc3c2)NC(=O)[C@H](CC(N)=O)NC(=O)[C@H](CC(N)=O)NC1=O [compound 251, Ac-W-T-I-C(3)-N-N-(2Nal)-H-D-C(3)-W-P-{D-Lys[PEG8-D-Lys(DOTA)-PEG8-COCH2Ph-4Br]}-NH2] (Ac-WTICNN[2Nal]HDCWP[dK](X11)-NH2; disulfide 4-10) | < 1
CC[C@H](C)[C@H](NC(=O)[C@@H](NC(=O)[C@H](Cc1c[nH]c2ccccc12)NC(C)=O)[C@@H](C)O)C(=O)N[C@H]1CSSC[C@@H](C(=O)N[C@@H](Cc2c[nH]c3ccccc23)C(=O)N2CCC[C@H]2C(=O)N[C@H](CCCCNC(=O)COCCOCCOCCOCCOCCOCCOCCOCCNC(=O)[C@@H](CCCCNC(=O)CN2CCN(CC(=O)O)CCN(CC(=O)O)CCN(CC(=O)O)CC2)NC(=O)CCOCCOCCOCCOCCOCCOCCOCCOCCOCCOCCOCCOCCOCCOCCOCCOCCOCCOCCOCCOCCOCCOCCOCCOCCNC(=O)Cc2ccc(Br)cc2)C(N)=O)NC(=O)[C@H](CC(=O)O)NC(=O)[C@H](Cc2c[nH]cn2)NC(=O)[C@H](Cc2ccc3ccccc3c2)NC(=O)[C@H](CC(N)=O)NC(=O)[C@H](CC(N)=O)NC1=O [compound 255, Ac-W-T-I-C(3)-N-N-(2Nal)-H-D-C(3)-W-P-{D-Lys[PEG8-D-Lys(DOTA)-PEG24-COCH2Ph-4Br]}-NH2] | 1 to 10

Same assay, conditions: 25° C., biotinylated human DLL3 immobilized on streptavidin sensor chip, 1:1 binding model; read-out: SPR KD

Structure (SMILES) | Kd [nM]
CC[C@H](C)[C@H](NC(=O)[C@@H](NC(=O)[C@H](Cc1c[nH]c2ccccc12)NC(C)=O)[C@@H](C)O)C(=O)N[C@H]1CSCc2ccc(cc2)CSC[C@@H](C(=O)N[C@@H](Cc2c[nH]c3ccccc23)C(=O)N2CCC[C@H]2C(=O)N[C@H](CCCCNC(=O)CN2CCN(CC(=O)O)CCN(CC(=O)O)CCN(CC(=O)O)CC2)C(N)=O)NC(=O)[C@H](CC(=O)O)NC(=O)[C@H](Cc2cnc[nH]2)NC(=O)[C@H](Cc2ccc3ccccc3c2)NC(=O)[C@H](CC(N)=O)NC(=O)[C@H](CC(N)=O)NC1=O [compound 256, Ac-W-T-I-C(3)(pDBX)-N-N-(2Nal)-H-D-C(2)-W-P-[D-Lys(DOTA)]-NH2] (Ac-WTICNN[2Nal]HDCWP[dK](DOTA)-NH2; linker 4-10 via pXylylene) | 1 to 10
CC[C@H](C)[C@H](NC(=O)[C@@H](NC(=O)[C@H](Cc1c[nH]c2ccccc12)NC(C)=O)[C@@H](C)O)C(=O)N[C@H]1CSSC[C@@H](C(=O)N[C@@H](Cc2c[nH]c3ccccc23)C(=O)N2CCC[C@H]2C(=O)N[C@H](CCCCNC(=O)CN2CCN(CC(=O)O)CCN(CC(=O)O)CCN(CC(=O)O)CC2)C(=O)O)NC(=O)[C@H](CC(=O)O)NC(=O)[C@H](Cc2cnc[nH]2)NC(=O)[C@H](Cc2ccc3ccccc3c2)NC(=O)[C@H](CC(N)=O)NC(=O)[C@H](CC(N)=O)NC1=O [compound 262, Ac-W-T-I-C(3)-N-N-(2Nal)-H-D-C(3)-W-P-[D-Lys(DOTA)]-OH] (Ac-WTICNN[2Nal]HDCWP[dK](DOTA)-OH; disulfide 4-10) | < 1
CC(=O)N[C@@H](Cc1c[nH]c2ccc(F)cc12)C(=O)N[C@H](C(=O)N[C@@H](CC1CCC1)C(=O)N[C@H]1CSSC[C@@H](C(=O)N[C@@H](Cc2c[nH]c3ncccc23)C(=O)N2C[C@H](F)C[C@H]2C(=O)N[C@@H](CCCCNC(=O)CN2CCN(CC(=O)O)CCN(CC(=O)O)CCN(CC(=O)O)CC2)C(N)=O)NC(=O)[C@H](CC(=O)O)NC(=O)[C@H](Cc2cnc[nH]2)NC(=O)[C@H](Cc2ccc3ccccc3c2)NC(=O)[C@H](CC(N)=O)NC(=O)[C@H](CC(N)=O)NC1=O)[C@@H](C)O [compound 269, Ac-(5Fluoro-W)-T-(CBA)-C(3)-N-N-(2Nal)-H-D-C(3)-(7Aza-W)-(trans4Fluoro-P)-[D-Lys(DOTA)]-NH2] (Ac-[Trp(5-F)]T[Cba]CNN[2Nal]HDC[Trp(7-aza)][Pro(trans-4-F)]K(DOTA)-NH2; disulfide 4-10) | < 1
CC[C@H](C)[C@H](NC(=O)[C@@H](NC(=O)C(Cc1c[nH]c2ccccc12)NC(C)=O)C(C)O)C(=O)N[C@H]1CSSC[C@@H](C(=O)N[C@@H](Cc2c[nH]c3ccccc23)C(=O)N2CCC[C@H]2C(=O)NCCOCCOCCOCCOCCC(=O)N[C@H](CCCCNC(=O)CN2CCN(CC(=O)O)CCN(CC(=O)O)CCN(CC(=O)O)CC2)C(N)=O)NC(=O)[C@H](CC(=O)O)NC(=O)[C@H](Cc2cnc[nH]2)NC(=O)[C@H](Cc2ccc3ccccc3c2)NC(=O)[C@H](CC(N)=O)NC(=O)[C@H](CC(N)=O)NC1=O (stereo partly drawn) [compound 270, Ac-W-T-I-C(3)-N-N-(2Nal)-H-D-C(3)-W-P-PEG4-[D-Lys(DOTA)]-NH2] (Ac-[ξW][Thr(3ξ)]ICNN[2Nal]HDCWP[PEG4][dK](DOTA)-NH2; disulfide 4-10) | < 1
CC[C@H](C)[C@H](NC(=O)[C@@H](NC(=O)C(Cc1c[nH]c2ccccc12)NC(C)=O)C(C)O)C(=O)N[C@H]1CSSC[C@@H](C(=O)N[C@@H](Cc2c[nH]c3ccccc23)C(=O)N2CCC[C@H]2C(=O)N[C@H](CCCCNC(=O)CCOCCOCCOCCOCCNC(=O)CN2CCN(CC(=O)O)CCN(CC(=O)O)CCN(CC(=O)O)CC2)C(N)=O)NC(=O)[C@H](CC(=O)O)NC(=O)[C@H](Cc2cnc[nH]2)NC(=O)[C@H](Cc2ccc3ccccc3c2)NC(=O)[C@H](CC(N)=O)NC(=O)[C@H](CC(N)=O)NC1=O (stereo partly drawn) [compound 271, Ac-W-T-I-C(3)-N-N-(2Nal)-H-D-C(3)-W-P-[D-Lys(PEG4-DOTA)]-NH2] (Ac-[ξW][Thr(3ξ)]ICNN[2Nal]HDCWP[dK]([PEG4-DOTA])-NH2; disulfide 4-10) | < 1

Further lines, results first:

Kd [nM] | Structure (SMILES)
< 1 | CCCC[C@H](NC(=O)[C@@H](NC(=O)[C@H](Cc1c[nH]c2ccc(F)cc12)NC(C)=O)[C@@H](C)O)C(=O)N[C@H]1CSSC[C@@H](C(=O)N[C@@H](Cc2c[nH]c3ncccc23)C(=O)N2C[C@H](F)C[C@H]2C(=O)N[C@H](CCCCNC(=O)CN2CCN(CC(=O)O)CCN(CC(=O)O)CCN(CC(=O)O)CC2)C(N)=O)NC(=O)[C@H](CC(=O)O)NC(=O)[C@H](Cc2c[nH]cn2)NC(=O)[C@H](Cc2ccc3ccccc3c2)NC(=O)[C@H](CC(N)=O)NC(=O)[C@H](CC(N)=O)NC1=O [compound 244, Ac-(5Fluoro-W)-T-(Nle)-C(3)-N-N-(2Nal)-H-D-C(3)-(7Aza-W)-(trans4Fluoro-P)-[D-Lys(DOTA)]-NH2] (Ac-[Trp(5-F)]T[Nle]CNN[2Nal]HDC[Trp(7-aza)][Pro(trans-4-F)][dK](DOTA)-NH2; disulfide 4-10)
< 1 | CC(=O)N[C@@H](Cc1c[nH]c2ccc(F)cc12)C(=O)N[C@H](C(=O)N[C@@H](Cc1ccccc1C(F)(F)F)C(=O)N[C@H]1CSSC[C@@H](C(=O)N[C@@H](Cc2c[nH]c3ncccc23)C(=O)N2C[C@H](F)C[C@H]2C(=O)N[C@@H](CCCCNC(=O)CN2CCN(CC(=O)O)CCN(CC(=O)O)CCN(CC(=O)O)CC2)C(N)=O)NC(=O)[C@H](CC(=O)O)NC(=O)[C@H](Cc2cnc[nH]2)NC(=O)[C@H](Cc2ccc3ccccc3c2)NC(=O)[C@H](CC(N)=O)NC(=O)[C@H](CC(N)=O)NC1=O)[C@@H](C)O [compound 246, Ac-(5Fluoro-W)-T-(2CF3-F)-C(3)-N-N-(2Nal)-H-D-C(3)-(7Aza-W)-(trans4Fluoro-P)-[D-Lys(DOTA)]-NH2] (Ac-[Trp(5-F)]T[Phe(2-CF3)]CNN[2Nal]HDC[Trp(7-aza)][Pro(trans-4-F)]K(DOTA)-NH2; disulfide 4-10)
< 1 | CC(=O)N[C@@H](Cc1c[nH]c2ccc(F)cc12)C(=O)N[C@H](C(=O)N[C@H](C(=O)N[C@H]1CSSC[C@@H](C(=O)N[C@@H](Cc2c[nH]c3ncccc23)C(=O)N2C[C@H](F)C[C@H]2C(=O)N[C@H](CCCCNC(=O)CN2CCN(CC(=O)O)CCN(CC(=O)O)CCN(CC(=O)O)CC2)C(N)=O)NC(=O)[C@H](CC(=O)O)NC(=O)[C@H](Cc2cnc[nH]2)NC(=O)[C@H](Cc2ccc3ccccc3c2)NC(=O)[C@H](CC(N)=O)NC(=O)[C@H](CC(N)=O)NC1=O)C(C)(C)C)[C@@H](C)O [compound 257, Ac-(5Fluoro-W)-T-(Tbg)-C(3)-N-N-(2Nal)-H-D-C(3)-(7Aza-W)-(trans4Fluoro-P)-[D-Lys(DOTA)]-NH2] (Ac-[Trp(5-F)]T[Tle]CNN[2Nal]HDC[Trp(7-aza)][Pro(trans-4-F)][dK](DOTA)-NH2; disulfide 4-10)
< 1 | CC(=O)N[C@@H](Cc1c[nH]c2ccc(F)cc12)C(=O)N[C@H](C(=O)N[C@H](C(=O)N[C@H]1CSSC[C@@H](C(=O)N[C@@H](Cc2c[nH]c3ncccc23)C(=O)N2C[C@H](F)C[C@H]2C(=O)N[C@H](CCCCNC(=O)CN2CCN(CC(=O)O)CCN(CC(=O)O)CCN(CC(=O)O)CC2)C(N)=O)NC(=O)[C@H](CC(=O)O)NC(=O)[C@H](Cc2cnc[nH]2)NC(=O)[C@H](Cc2ccc3ccccc3c2)NC(=O)[C@H](CC(N)=O)NC(=O)[C@H](CC(N)=O)NC1=O)C1CCCCC1)[C@@H](C)O [compound 258, Ac-(5Fluoro-W)-T-(Chg)-C(3)-N-N-(2Nal)-H-D-C(3)-(7Aza-W)-(trans4Fluoro-P)-[D-Lys(DOTA)]-NH2] (Ac-[Trp(5-F)]T[Chg]CNN[2Nal]HDC[Trp(7-aza)][Pro(trans-4-F)][dK](DOTA)-NH2; disulfide 4-10)
